From ChEMBL document CHEMBL1201862, “PubChem BioAssay data set” (2004)
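Step 1: Grow cells in 96-well plates. Step 2: Expose to compound for 48 hours at 5 concentrations. Step 3: Interpolate endpoints linearly; if unreached, use highest concentration. At the GI50, growth is halved.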 Active and inactive are the calls of the source. No stated cut-off is given here; in the data, active = GI50 up to about 1.1 µM and inactive = higher.

Key:
Test in all cases: inhibition of tumour cell growth, NCI panel, 48 h
A498 = test system: A498
ACHN = test system: ACHN
CAKI-1 = test system: CAKI-1
HCT-116 = test system: HCT-116
HCT-15 = test system: HCT-15
HOP-62 = test system: HOP-62
HT-29 = test system: HT-29
K562 = test system: K562
M14 = test system: M14
MOLT-4 = test system: MOLT-4
Malme-3M = test system: Malme-3M
NCI-H522 = test system: NCI-H522
OVCAR-4 = test system: OVCAR-4
OVCAR-5 = test system: OVCAR-5
OVCAR-8 = test system: OVCAR-8
RXF 393 = test system: RXF 393
SK-MEL-5 = test system: SK-MEL-5
SNB-75 = test system: SNB-75
SW-620 = test system: SW-620
UO-31 = test system: UO-31

| SMILES | GI50 (A498) | GI50 (ACHN) | GI50 (CAKI-1) | GI50 (HCT-116) | GI50 (HCT-15) [µM] | GI50 (HOP-62) | GI50 (HT-29) | GI50 (K562) | GI50 (M14) | GI50 (MOLT-4) | GI50 (Malme-3M) | GI50 (NCI-H522) | GI50 (OVCAR-4) | GI50 (OVCAR-5) | GI50 (OVCAR-8) | GI50 (RXF 393) | GI50 (SK-MEL-5) | GI50 (SNB-75) | GI50 (SW-620) | GI50 (UO-31) |
| --- | --- | --- | --- | --- | --- | --- | --- | --- | --- | --- | --- | --- | --- | --- | --- | --- | --- | --- | --- | --- |
| Cc1ccc(NC(=O)c2ccc(OP(=O)(O)Nc3ccc(C)cc3)cc2)cc1 | > 100 µM (inactive) | > 100 µM (inactive) | > 100 µM (inactive) | > 100 µM (inactive) | > 100 | > 100 µM (inactive) | > 100 µM (inactive) | > 100 µM (inactive) | 64.4 µM (inactive) | > 100 µM (inactive) | > 100 µM (inactive) | 78.3 µM (inactive) | > 100 µM (inactive) | > 100 µM (inactive) | > 100 µM (inactive) | 50.7 µM (inactive) | > 100 µM (inactive) | > 100 µM (inactive) | > 100 µM (inactive) | 66.8 µM (inactive) |
| O=C(CSCC(=O)N/N=C/c1cccc(OCc2ccccc2)c1)N/N=C/c1cccc(OCc2ccccc2)c1 | > 44.3 µM (inactive) | 32.9 µM (inactive) | > 100 µM (inactive) | 26.8 µM (inactive) | 44.4 | > 100 µM (inactive) | 39.5 µM (inactive) | 22.3 µM (inactive) | 37.5 µM (inactive) | 15.5 µM (inactive) | 45.5 µM (inactive) | > 47.6 µM (inactive) | > 76.4 µM (inactive) | 96.8 µM (inactive) | 32.2 µM (inactive) | > 69.7 µM (inactive) | 31.3 µM (inactive) | > 100 µM (inactive) | > 87.1 µM (inactive) | 46.9 µM (inactive) |
| Cc1cc(C)c2c(O)cc(-c3ccc4ccccc4c3)nc2n1 | 3.9 µM (inactive) | 46 µM (inactive) | 54.6 µM (inactive) | 13.8 µM (inactive) | 6.1 | 32.1 µM (inactive) | 12.1 µM (inactive) | 2.05 µM (inactive) | 17.3 µM (inactive) | 3.66 µM (inactive) | 21.6 µM (inactive) | 21.4 µM (inactive) | 14.6 µM (inactive) | 43.8 µM (inactive) | 39 µM (inactive) | 71.6 µM (inactive) | 2.7 µM (inactive) | 15.8 µM (inactive) | 15.2 µM (inactive) | 22.9 µM (inactive) |
| OC(CCN1CCN(CCOC(c2ccc(F)cc2)c2ccc(F)cc2)CC1)c1ccccc1 (stereo not given) | 5.06 µM (inactive) | 12.9 µM (inactive) | 16.8 µM (inactive) | 13.4 µM (inactive) | 13.6 | 18 µM (inactive) | 8.65 µM (inactive) | 4.56 µM (inactive) | 14.7 µM (inactive) | 12.1 µM (inactive) | 13.4 µM (inactive) | 14.4 µM (inactive) | 16.1 µM (inactive) | 14.5 µM (inactive) | 12.9 µM (inactive) | 11.1 µM (inactive) | 7.6 µM (inactive) | 13.5 µM (inactive) | 22.8 µM (inactive) | 3.37 µM (inactive) |
| Cc1nc(N)nc(S)c1CCCNc1ccccc1 | 26.1 µM (inactive) | 90.2 µM (inactive) | > 100 µM (inactive) | 79.6 µM (inactive) | > 100 | > 100 µM (inactive) | 68.7 µM (inactive) | 2.36 µM (inactive) | 52.4 µM (inactive) | 3.21 µM (inactive) | 35.6 µM (inactive) | 34.4 µM (inactive) | > 100 µM (inactive) | > 100 µM (inactive) | 20.5 µM (inactive) | > 100 µM (inactive) | 27.5 µM (inactive) | > 100 µM (inactive) | > 100 µM (inactive) | 59.3 µM (inactive) |
| C=C(C)[C@@H](C(=O)OC)N1C(=O)c2ccccc2C1=O | > 100 µM (inactive) | > 100 µM (inactive) | > 100 µM (inactive) | > 100 µM (inactive) | > 100 | > 100 µM (inactive) | > 100 µM (inactive) | > 100 µM (inactive) | > 100 µM (inactive) | > 100 µM (inactive) | > 100 µM (inactive) | > 100 µM (inactive) | > 100 µM (inactive) | > 100 µM (inactive) | > 100 µM (inactive) | > 100 µM (inactive) | > 100 µM (inactive) | > 100 µM (inactive) | > 100 µM (inactive) | > 100 µM (inactive) |
| O=[N+]([O-])C1C2C=CC(C2)[C@H]1c1ccco1 (stereo not given in full) | > 100 µM (inactive) | > 100 µM (inactive) | > 100 µM (inactive) | > 100 µM (inactive) | > 100 | > 100 µM (inactive) | 2.19 µM (inactive) | > 100 µM (inactive) | > 100 µM (inactive) | > 100 µM (inactive) | > 100 µM (inactive) | > 100 µM (inactive) | > 100 µM (inactive) | > 100 µM (inactive) | > 100 µM (inactive) | > 100 µM (inactive) | > 100 µM (inactive) | > 100 µM (inactive) | > 100 µM (inactive) | > 100 µM (inactive) |
